Reference: ChEMBL document CHEMBL1201862, “PubChem BioAssay data set” (2004)
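Following 48 hours of exposure in 96-well plates, responses at five concentrations were used to interpolate endpoints linearly. GI50 is the concentration that inhibits growth by half.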 The source made the active and inactive calls. Rule as the data show it: active = GI50 up to about 1.1 µM and inactive = higher. Where a SMILES comes first, the peptide text is derived from it. The star is where a group is joined. Boc = CC(C)(C)OC(=O)*

Assays:
Assay in all cases: growth of human tumour cells (NCI), 48 h
NCI-H522 = system: NCI-H522
UO-31 = system: UO-31
SK-MEL-28 = system: SK-MEL-28
EKVX = system: EKVX
SF-539 = system: SF-539
MDA-MB-231 = system: MDA-MB-231
CCRF-CEM = system: CCRF-CEM
NCI-H226 = system: NCI-H226
DU-145 = system: DU-145
UACC-257 = system: UACC-257
MDA-N = system: MDA-N
ACHN = system: ACHN
OVCAR-8 = system: OVCAR-8
HT-29 = system: HT-29
HL-60 = system: HL-60
IGROV-1 = system: IGROV-1
786-0 = system: 786-0
T47D = system: T47D
NCI-H23 = system: NCI-H23
SF-268 = system: SF-268

Measured: GI50

C[N+]1(C)C2CC(OC(=O)C(CO)c3ccccc3)CC1C1OC12 (stereo unspecified)
inactive: NCI-H522 > 100 µM | UO-31 > 100 µM | SK-MEL-28 > 100 µM | EKVX > 100 µM | SF-539 > 100 µM | MDA-MB-231 > 100 µM | CCRF-CEM > 100 µM | NCI-H226 > 100 µM | DU-145 > 100 µM | UACC-257 > 100 µM | MDA-N > 100 µM | ACHN > 100 µM | OVCAR-8 > 100 µM | HT-29 > 100 µM | HL-60 > 100 µM | IGROV-1 > 100 µM | 786-0 > 100 µM | T47D > 100 µM | NCI-H23 > 100 µM

COc1ccc(/C=N/Nc2nnc3c(n2)c2ccccc2c2nn(-c4ccccc4Cl)nc23)cc1
inactive: NCI-H522 > 100 µM | UO-31 > 100 µM | SK-MEL-28 > 100 µM | EKVX > 100 µM | MDA-MB-231 > 100 µM | CCRF-CEM > 100 µM | NCI-H226 > 100 µM | DU-145 > 100 µM | SF-268 > 100 µM | UACC-257 > 100 µM | MDA-N > 100 µM | ACHN > 100 µM | OVCAR-8 > 100 µM | HT-29 > 100 µM | IGROV-1 > 100 µM | 786-0 > 100 µM | T47D > 100 µM | NCI-H23 > 100 µM

Nc1cc2c3c(cccc3c1)C(=O)N(c1ccc(OCCN3CCCC3)cc1)C2=O
inactive: NCI-H522 16 µM | UO-31 15.1 µM | SK-MEL-28 20.3 µM | EKVX 18.4 µM | SF-539 13.3 µM | MDA-MB-231 24.8 µM | CCRF-CEM 23.3 µM | NCI-H226 14.5 µM | DU-145 27.4 µM | SF-268 21.3 µM | UACC-257 16.2 µM | MDA-N 16.6 µM | ACHN 13.5 µM | OVCAR-8 15.9 µM | HT-29 13.5 µM | IGROV-1 16.3 µM | 786-0 15.2 µM | T47D 21.2 µM | NCI-H23 14.4 µM

CC(C)(C)OC(=O)NC12C3C4C1C1C2C3C41NC(=O)OC(C)(C)C (stereo unspecified)
inactive: NCI-H522 63.2 µM | UO-31 39.4 µM | SK-MEL-28 51.4 µM | EKVX 26.9 µM | SF-539 31 µM | MDA-MB-231 26 µM | CCRF-CEM 21.3 µM | DU-145 68.4 µM | SF-268 35.8 µM | UACC-257 39.4 µM | MDA-N 61.2 µM | ACHN > 100 µM | OVCAR-8 30.5 µM | HT-29 26.9 µM | HL-60 19.7 µM | IGROV-1 > 100 µM | 786-0 43.1 µM | T47D 27.3 µM | NCI-H23 57.4 µM

CN(C)c1ccc(C(=C2C=CC(=[N+](C)C)C=C2)c2c(O)c(S(=O)(=O)[O-])cc3cc(S(=O)(=O)O)ccc23)cc1
inactive: NCI-H522 > 100 µM | UO-31 > 100 µM | SK-MEL-28 > 100 µM | EKVX > 100 µM | SF-539 > 100 µM | MDA-MB-231 > 100 µM | NCI-H226 > 100 µM | DU-145 > 100 µM | SF-268 > 100 µM | UACC-257 > 100 µM | MDA-N > 100 µM | ACHN > 100 µM | OVCAR-8 > 100 µM | HT-29 > 100 µM | IGROV-1 > 100 µM | 786-0 > 100 µM | T47D > 100 µM | NCI-H23 > 100 µM

C=C1C(=O)O[C@@H]2C(=O)[C@@H](C)CCC/C(C)=C/CC[C@@]3(C)O[C@@H]3C[C@@H]12
inactive: NCI-H522 12.1 µM | UO-31 92.7 µM | SK-MEL-28 > 100 µM | EKVX 37.7 µM | SF-539 25.2 µM | MDA-MB-231 53.8 µM | CCRF-CEM 11.8 µM | NCI-H226 > 100 µM | DU-145 75.2 µM | UACC-257 56.8 µM | MDA-N 34.4 µM | ACHN 36.9 µM | OVCAR-8 68.5 µM | HT-29 14.3 µM | HL-60 16.5 µM | IGROV-1 15.7 µM | 786-0 21.3 µM | T47D 87.9 µM | NCI-H23 > 100 µM

CNC(=O)CNC(=O)C(NC(=O)CNC(=O)C1CCCN1C(=O)C(C)NC(=O)C(NC(=O)OC(C)(C)C)C(C)C)C(C)C (stereo unspecified) (Boc-VAPGVG-NHMe; configuration not given here)
inactive: NCI-H522 > 100 µM | UO-31 > 100 µM | SK-MEL-28 > 100 µM | EKVX > 100 µM | SF-539 > 100 µM | MDA-MB-231 > 100 µM | CCRF-CEM > 100 µM | DU-145 > 100 µM | SF-268 > 100 µM | UACC-257 > 100 µM | MDA-N > 100 µM | ACHN > 100 µM | OVCAR-8 > 100 µM | HT-29 > 100 µM | HL-60 > 100 µM | IGROV-1 > 100 µM | 786-0 > 100 µM | T47D > 100 µM | NCI-H23 > 100 µM
